In ChEMBL document CHEMBL1145730, “Nodulisporic acid side-chain modifications: access to the 2", 3", 4", and 6" registers” (Bioorg Med Chem Lett, 2003):

Tested on: Pulicinae
Experiment: In vitro flea activity using a membrane feeding assay wherein adult fleas ingest drug-treated bovine blood
Format: functional

Structure (SMILES)	Activity [p.p.m.]
C=C(C)[C@H]1C(=O)c2c3c(cc4c5c(n1c24)[C@@]1(C)C(CC[C@H]2[C@](C)(C/C=C/C(=O)NC4CC4)[C@@H](O)CC[C@@]21C)C5)C1=CC(C)(C)OC(C)(C)C1[C@@H]3O (stereo not given in full)	> 10
C=C(C)[C@H]1C(=O)c2c3c(cc4c5c(n1c24)[C@@]1(C)C(CC[C@H]2[C@](C)(/C=C/C=C(\C)C(=O)O)[C@@H](O)CC[C@@]21C)C5)C1=CC(C)(C)OC(C)(C)C1[C@@H]3O (stereo not given in full)	1
C=C(C)[C@H]1C(=O)c2c3c(cc4c5c(n1c24)[C@@]1(C)C(CC[C@H]2[C@](C)(/C=C/CC(=O)Nc4ccccc4)[C@@H](O)CC[C@@]21C)C5)C1=CC(C)(C)OC(C)(C)C1[C@@H]3O (stereo not given in full)	1
C=C(C)[C@H]1C(=O)c2c3c(cc4c5c(n1c24)[C@@]1(C)C(CC[C@H]2[C@](C)(C/C=C/C(=O)N(C)C)[C@@H](O)CC[C@@]21C)C5)C1=CC(C)(C)OC(C)(C)C1[C@@H]3O (stereo not given in full)	10
C=C(C)[C@H]1C(=O)c2c3c(cc4c5c(n1c24)[C@@]1(C)C(CC[C@H]2[C@](C)(/C=C/C(=O)NCCC)[C@@H](O)CC[C@@]21C)C5)C1=CC(C)(C)OC(C)(C)C1[C@@H]3O (stereo not given in full)	> 10
C=C(C)[C@H]1C(=O)c2c3c(cc4c5c(n1c24)[C@@]1(C)C(CC[C@H]2[C@](C)(/C=C/CC(=O)N(C)CCC)[C@@H](O)CC[C@@]21C)C5)C1=CC(C)(C)OC(C)(C)C1[C@@H]3O (stereo not given in full)	1
C=C(C)[C@H]1C(=O)c2c3c(cc4c5c(n1c24)[C@@]1(C)C(CC[C@H]2[C@](C)(/C=C/CC(=O)N4CCOCC4)[C@@H](O)CC[C@@]21C)C5)C1=CC(C)(C)OC(C)(C)C1[C@@H]3O (stereo not given in full)	1
C=C(C)[C@H]1C(=O)c2c3c(cc4c5c(n1c24)[C@@]1(C)C(CC[C@H]2[C@](C)(/C=C/CC(=O)NCc4ccco4)[C@@H](O)CC[C@@]21C)C5)C1=CC(C)(C)OC(C)(C)C1[C@@H]3O (stereo not given in full)	10
C=C(C)[C@H]1C(=O)c2c3c(cc4c5c(n1c24)[C@@]1(C)C(CC[C@H]2[C@](C)(/C=C/C(=O)NC)[C@@H](O)CC[C@@]21C)C5)C1=CC(C)(C)OC(C)(C)C1[C@@H]3O (stereo not given in full)	10
C=C(C)[C@H]1C(=O)c2c3c(cc4c5c(n1c24)[C@@]1(C)C(CC[C@H]2[C@](C)(C/C=C/C(C)=O)[C@@H](O)CC[C@@]21C)C5)C1=CC(C)(C)OC(C)(C)C1[C@@H]3O (stereo not given in full)	10
C=C(C)[C@H]1C(=O)c2c3c(cc4c5c(n1c24)[C@@]1(C)C(CC[C@H]2[C@](C)(C/C=C/C(=O)NCC)[C@@H](O)CC[C@@]21C)C5)C1=CC(C)(C)OC(C)(C)C1[C@@H]3O (stereo not given in full)	10
C=C(C)[C@H]1C(=O)c2c3c(cc4c5c(n1c24)[C@@]1(C)C(CC[C@H]2[C@](C)(/C=C/CC(=O)OC)[C@@H](O)CC[C@@]21C)C5)C1=CC(C)(C)OC(C)(C)C1[C@@H]3O (stereo not given in full)	1
C=C(C)[C@H]1C(=O)c2c3c(cc4c5c(n1c24)[C@@]1(C)C(CC[C@H]2[C@](C)(/C=C/CC(=O)NC4CC4)[C@@H](O)CC[C@@]21C)C5)C1=CC(C)(C)OC(C)(C)C1[C@@H]3O (stereo not given in full)	1
C=C(C)[C@H]1C(=O)c2c3c(cc4c5c(n1c24)[C@@]1(C)C(CC[C@H]2[C@](C)(/C=C/CC(=O)NCC)[C@@H](O)CC[C@@]21C)C5)C1=CC(C)(C)OC(C)(C)C1[C@@H]3O (stereo not given in full)	10
C=C(C)[C@H]1C(=O)c2c3c(cc4c5c(n1c24)[C@@]1(C)C(CC[C@H]2[C@](C)(/C=C/C(=O)NC(C)(C)c4ccccn4)[C@@H](O)CC[C@@]21C)C5)C1=CC(C)(C)OC(C)(C)C1[C@@H]3O (stereo not given in full)	1
C=C(C)[C@H]1C(=O)c2c3c(cc4c5c(n1c24)[C@@]1(C)C(CC[C@H]2[C@](C)(/C=C/CC(=O)NC(C)(C)C)[C@@H](O)CC[C@@]21C)C5)C1=CC(C)(C)OC(C)(C)C1[C@@H]3O (stereo not given in full)	1
C=C(C)[C@H]1C(=O)c2c3c(cc4c5c(n1c24)[C@@]1(C)C(CC[C@H]2[C@](C)(/C=C/CC(C)=O)[C@@H](O)CC[C@@]21C)C5)C1=CC(C)(C)OC(C)(C)C1[C@@H]3O (stereo not given in full)	1
C=C(C)[C@H]1C(=O)c2c3c(cc4c5c(n1c24)[C@@]1(C)C(CC[C@H]2[C@](C)(/C=C/CC(=O)NCc4ccccc4)[C@@H](O)CC[C@@]21C)C5)C1=CC(C)(C)OC(C)(C)C1[C@@H]3O (stereo not given in full)	10
C=C(C)[C@H]1C(=O)c2c3c(cc4c5c(n1c24)[C@@]1(C)C(CC[C@H]2[C@](C)(/C=C/C(=O)N(C)C)[C@@H](O)CC[C@@]21C)C5)C1=CC(C)(C)OC(C)(C)C1[C@@H]3O (stereo not given in full)	> 10
C=C(C)[C@H]1C(=O)c2c3c(cc4c5c(n1c24)[C@@]1(C)C(CC[C@H]2[C@](C)(/C=C/C(=O)NCc4ccccc4)[C@@H](O)CC[C@@]21C)C5)C1=CC(C)(C)OC(C)(C)C1[C@@H]3O (stereo not given in full)	10
C=C(C)[C@H]1C(=O)c2c3c(cc4c5c(n1c24)[C@@]1(C)C(CC[C@H]2[C@](C)(/C=C/CC(=O)N(C)C)[C@@H](O)CC[C@@]21C)C5)C1=CC(C)(C)OC(C)(C)C1[C@@H]3O (stereo not given in full)	10
C=C(C)[C@H]1C(=O)c2c3c(cc4c5c(n1c24)[C@@]1(C)C(CC[C@H]2[C@](C)(/C=C/CC=O)[C@@H](O)CC[C@@]21C)C5)C1=CC(C)(C)OC(C)(C)C1[C@@H]3O (stereo not given in full)	10
C=C(C)[C@H]1C(=O)c2c3c(cc4c5c(n1c24)[C@@]1(C)C(CC[C@H]2[C@](C)(C/C=C/C(=O)OC)[C@@H](O)CC[C@@]21C)C5)C1=CC(C)(C)OC(C)(C)C1[C@@H]3O (stereo not given in full)	10
C=CCN(C)C(=O)/C=C/[C@]1(C)[C@@H](O)CC[C@@]2(C)[C@H]1CCC1Cc3c(n4c5c(c6c(cc35)C3=CC(C)(C)OC(C)(C)C3[C@@H]6O)C(=O)[C@@H]4C(=C)C)[C@@]12C (stereo not given in full)	> 10
C=C(C)[C@H]1C(=O)c2c3c(cc4c5c(n1c24)[C@@]1(C)C(CC[C@H]2[C@](C)(/C=C/C(=O)N4CCN(c6ccccn6)CC4)[C@@H](O)CC[C@@]21C)C5)C1=CC(C)(C)OC(C)(C)C1[C@@H]3O (stereo not given in full)	1
